Where two headings read alike, the source gives them in different places.
Molecular target: T1, mAChR M4 (Homo sapiens, UniProt P08173)
T1 construct: expressed in transfected cells; host or cells: CHO-K1 cells stably transfected with M4 cDNA and chimeric G-protein Gqi5
T1 sequence (P08173 1-479): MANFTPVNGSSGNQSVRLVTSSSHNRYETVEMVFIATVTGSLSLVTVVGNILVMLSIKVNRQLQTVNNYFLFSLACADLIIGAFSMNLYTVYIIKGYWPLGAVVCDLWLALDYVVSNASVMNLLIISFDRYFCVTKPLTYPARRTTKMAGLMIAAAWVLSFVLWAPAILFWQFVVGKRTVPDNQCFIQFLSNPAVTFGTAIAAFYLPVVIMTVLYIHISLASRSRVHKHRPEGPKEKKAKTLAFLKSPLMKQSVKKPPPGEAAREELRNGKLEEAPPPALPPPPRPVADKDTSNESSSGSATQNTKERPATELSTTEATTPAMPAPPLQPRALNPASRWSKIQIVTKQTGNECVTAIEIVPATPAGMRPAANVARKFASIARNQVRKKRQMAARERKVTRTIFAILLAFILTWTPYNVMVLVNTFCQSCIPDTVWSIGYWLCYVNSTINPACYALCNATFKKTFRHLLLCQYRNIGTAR
Assay: mAChR M4 cell-based functional assay (calcium mobilization, potentiation of EC20 acetylcholine response)

[1] = mAChR M4 cell-based functional assay, >10,000 estimated for low potency compounds without plateau, read-out: EC50

Emax at 30 µM (% ACh maximum at 30 μM) [%]	EC50 [1] [nM]	Structure (SMILES)	EC50 (EC50 (nM)) [nM]	Emax (%)* (% ACh maximum at 30 μM) [%]
61	220	Cc1nnc2sc(C(=O)NCc3ccc4c(c3)CN(C(C)C)C4=O)c(N)c2c1C [Example B407]		
57	3400	Cc1nnc2sc(C(=O)NCCNS(=O)(=O)c3ccc(F)cc3)c(N)c2c1C [Example B353]		
51	1800	Cc1nnc2sc(C(=O)N[C@@H]3CCN(c4ccccc4)C3)c(N)c2c1C [Example B192]		
48	1100	Cc1nnc2sc(C(=O)N3CC4CN(c5ncccn5)CC4C3)c(N)c2c1C (centres unmarked) [Example B434]		
62	3400	Cc1nnc2sc(C(=O)N3CCC(NC(=O)C4CCCCC4)C3)c(N)c2c1C (centres unmarked) [Example B237]		
61	15	Cc1nnc2sc(C(=O)NCc3ccc([S+]([O-])C(F)F)c(F)c3)c(N)c2c1C (centres unmarked) [Example B465]		
34	590	COc1cccc(S(=O)(=O)C2CN(C(=O)c3sc4nnc(C)c(C)c4c3N)C2)c1 [Example B433]		
54	> 10000	CC(=O)N1CC2CN(C(=O)c3sc4nnc(C)c(C)c4c3N)CC2C1 (centres unmarked) [Example B278]		
62	190	Cc1nnc2sc(C(=O)NC3CN(C(=O)c4ccncc4)C3)c(N)c2c1C [Example B150]		
37	1200	Cc1nnc2sc(C(=O)Nc3nccs3)c(N)c2c1C [Example B70]		
56	1100	Cc1nnc2sc(C(=O)NCc3ccc(-c4cncc5ccccc45)cc3)c(N)c2c1C [Example B503]		
54	72	Nc1c(C(=O)NCc2ccc3c(c2)OCCO3)sc2nnc3c(c12)CCCC3 [Example B56]		
41	3100	Cc1nnc2sc(C(=O)N3CC(NC(=O)C4CC4)C3)c(N)c2c1C [Example B166]		
63	150	Cc1nnc2sc(C(=O)NCc3ccc(C(C)S(C)(=O)=O)cc3)c(N)c2c1C (centres unmarked) [Example B104]		
79	1300	Cc1nnc2sc(C(=O)NC3CCN(C(=O)C4CC4)C3)c(N)c2c1C (centres unmarked) [Example B242]		
80	190	Cc1nnc2sc(C(=O)NCc3ccc(F)nc3)c(N)c2c1C [Example B440]		
64	3600	Cc1nnc2sc(C(=O)NCCNC(=O)OCc3ccccc3)c(N)c2c1C [Example B345]		

Emax at 30 µM (% ACh maximum at 30 μM) [%]	EC50 [1] [nM]	Structure (SMILES)	EC50 (EC50 (nM)) [nM]	Emax (%)* (% ACh maximum at 30 μM) [%]
41	> 10000	Cc1nnc2sc(C(=O)N3CC(NCc4ccco4)C3)c(N)c2c1C [Example B64]		
73	2500	CCOC(=O)N1CC2CN(C(=O)c3sc4nnc(C)c(C)c4c3N)CC2C1 (centres unmarked) [Example B285]		
68	110	Cc1ccccc1N1CCC(NC(=O)c2sc3nnc(C)c(C)c3c2N)C1 (centres unmarked) [Example B269]		
54	350	Cc1nnc2sc(C(=O)N3CC(S(=O)(=O)c4ccccc4)C3)c(N)c2c1C [Example B413]		
59	17	COc1ccccc1OC(=O)N1CC(NC(=O)c2sc3nnc(C)c(C)c3c2N)C1 [Example B376]		
27	> 10000	Cc1nnc2sc(C(=O)NCCN(C)C(=O)c3ccc(F)cc3)c(N)c2c1C [Example B357]		
61	20	Cc1nnc2sc(C(=O)NCc3ccc(-n4ccnc4)cc3)c(N)c2c1C [Example B490]		
53	900	Cc1nnc2sc(C(=O)N3CC4CN(C(=O)OC(C)(C)C)CC4C3)c(N)c2c1C (centres unmarked) [Example B259]		
63	3400	Cc1nnc2sc(C(=O)N3CCC(NC(=O)CC4CCCCC4)C3)c(N)c2c1C (centres unmarked) [Example B230]		
56	> 10000	Cc1nnc2sc(C(=O)NCC(C)(C)O)c(N)c2c1C [Example B25]		
76	41	Cc1nnc2sc(C(=O)NCc3ccc(S(=O)(=O)C(C)(C)C)cc3)c(N)c2c1C [Example B47]		
74	780	Cc1nnc2sc(C(=O)NCc3ccc(S(C)(=O)=O)cn3)c(N)c2c1C [Example B329]		
48	510	Cc1ccc(CNC(=O)c2sc3nnc(C)c(C)c3c2N)nc1 [Example B470]		
61	24	COc1ccc(CNC(=O)c2sc3nnc(C)c(C)c3c2N)c(F)c1 [Example B475]		
66	19	Cc1nnc2sc(C(=O)NCc3ccc(-c4cccnc4F)cc3)c(N)c2c1C [Example B454]		
46	1700	Cc1nnc2sc(C(=O)N3Cc4ccccc4C3)c(N)c2c1C [Example B280]		

The next lines start with the compound.

Structure (SMILES)	Emax at 30 µM (% ACh maximum at 30 μM) [%]	EC50 [1] [nM]	EC50 (EC50 (nM)) [nM]	Emax (%)* (% ACh maximum at 30 μM) [%]
CSc1ccc(CNC(=O)c2sc3nnc(C)c(C)c3c2N)cc1 [Example B26]	76		11	
Cc1nnc2sc(C(=O)NC3CN(C(=O)Nc4ccc(OC(F)F)cc4)C3)c(N)c2c1C [Example B363]	74	27		
CS(=O)(=O)c1ccc(CNC(=O)c2sc3nnccc3c2N)cc1 [Example B20]	41	> 10000		
Cc1nnc2sc(C(=O)N3CC(F)(c4ccc(-c5cccnc5)cc4)C3)c(N)c2c1C [Example B320]	42	130		
Cc1nnc2sc(C(=O)NCc3ccc(-c4cnc5ccccc5c4)cc3)c(N)c2c1C [Example B497]	46	710		
Cc1nnc2sc(C(=O)NCCNC(=O)Oc3ccccc3)c(N)c2c1C [Example B354]		2000		73
Cc1nnc2sc(C(=O)N3CC4CN(C(=O)C(C)C)CC4C3)c(N)c2c1C (centres unmarked) [Example B388]	55	> 10000		
COc1cc(CNC(=O)c2sc3nnc(C)c(C)c3c2N)ccn1 [Example B289]	69	230		
COc1cccc(S(=O)(=O)N2CC(NC(=O)c3sc4nnc(C)c(C)c4c3N)C2)c1 [Example B137]	70	100		
Cc1cc(CNC(=O)c2sc3nnc(C)c(C)c3c2N)ccn1 [Example B4]	96	640		
Cc1nnc2sc(C(=O)NCc3ccc(Br)cn3)c(N)c2c1C [Example B471]	60	390		
Cc1nnc2sc(C(=O)N3CC(C)(F)C3)c(N)c2c1C [Example B302]	73	860		
Cc1nnc2sc(C(=O)NCc3ccc(-c4ccc(F)nc4)cc3)c(N)c2c1C [Example B459]	88	15		
COc1ccc(C2(CNC(=O)c3sc4nnc(C)c(C)c4c3N)CC2)cc1 [Example B75]	41	360		
Cc1nnc2sc(C(=O)NCc3ccc(S(=O)(=O)C4CC4)cc3)c(N)c2c1C [Example B92]	53		23	
Nc1c(C(=O)NCc2ccc3c(c2)OC(F)(F)O3)sc2nnc3c(c12)CCCC3 [Example B53]	42	170		

Structure (SMILES)	Emax at 30 µM (% ACh maximum at 30 μM) [%]	EC50 [1] [nM]	EC50 (EC50 (nM)) [nM]	Emax (%)* (% ACh maximum at 30 μM) [%]
Cc1nnc2sc(C(=O)N3CC(NCc4cccnc4)C3)c(N)c2c1C [Example B62]	34	> 10000		
COc1cncc(NC(=O)c2sc3nnc(C)c(C)c3c2N)c1 [Example B72]	30	380		
Cc1nnc2sc(C(=O)N3CCC(NS(=O)(=O)c4ccccc4)C3)c(N)c2c1C (centres unmarked) [Example B207]	64	1300		
Cc1nnc2sc(C(=O)N3CC(NC(=O)C4CC4c4ccccc4)C3)c(N)c2c1C (centres unmarked) [Example B182]	59	2300		
Cc1nnc2sc(C(=O)NCc3ccc(CS(C)(=O)=O)cc3)c(N)c2c1C [Example B74]	69	170		
Cc1nnc2sc(C(=O)N3CC(F)(c4cccc(-c5cnn(C)c5)c4)C3)c(N)c2c1C [Example B325]	62	590		
Cc1nnc2sc(C(=O)NCc3cccc(F)c3)c(N)c2c1C [Example B7]	97	140		
Cc1nnc2sc(C(=O)N3CCC(NC(=O)c4ccc(F)c(F)c4)C3)c(N)c2c1C (centres unmarked) [Example B217]	53	1100		
Cc1nnc2sc(C(=O)N3CC(Sc4ccccc4)C3)c(N)c2c1C [Example B405]	46	92		
Cc1nnc2sc(C(=O)NCc3cc(F)ccc3F)c(N)c2c1C [Example B5]	86	180		
Cc1nnc2sc(C(=O)N3CC(F)(c4ccc(S(=O)(=O)C(F)(F)F)cc4)C3)c(N)c2c1C [Example B378]	46	4200		
Cc1nnc2sc(C(=O)NC3CN(Cc4ccc(F)cc4)C3)c(N)c2c1C [Example B46]	38	> 10000		
CC(=O)NC1CN(C(=O)c2sc3nnc(C)c(C)c3c2N)C1 [Example B157]	32	> 10000		
Cc1nnc2sc(C(=O)N3CC(F)(c4ccc(-c5cnn(C)c5)cc4)C3)c(N)c2c1C [Example B319]	51	390		
Cc1nnc2sc(C(=O)N3CC(Sc4ccc(F)c(F)c4)C3)c(N)c2c1C [Example B414]	63	340		

Reference: patent US9868746B2, “Substituted 5-aminothieno[2,3-C]pyridazine-6-carboxamide analogs as positive allosteric modulators of the muscarinic acetylcholine receptor M4” (Vanderbilt University, priority 2012, dated 2018)
